Test results: US20100120715A1, “BETA-LACTAMASE INHIBITORS” (priority 2007, published 2010)
Read-outs that look alike come from different tables or passages of the source.

Columns and labels:
[1] = biological target: T1, Class A ESBL CTXM-15 (Escherichia coli, UniProt Q9EXV5); assay: β-lactamase enzyme inhibition (nitrocefin hydrolysis), CTXM-15; format: biochemical; conditions: purified enzyme; nitrocefin 100 μM, PBS pH 7.0; read-out: CTXM-15 IC50 Range
T1 construct: made in house; host or cells: E. coli BL21(DE3)
T1 sequence (Q9EXV5 entry or part of it): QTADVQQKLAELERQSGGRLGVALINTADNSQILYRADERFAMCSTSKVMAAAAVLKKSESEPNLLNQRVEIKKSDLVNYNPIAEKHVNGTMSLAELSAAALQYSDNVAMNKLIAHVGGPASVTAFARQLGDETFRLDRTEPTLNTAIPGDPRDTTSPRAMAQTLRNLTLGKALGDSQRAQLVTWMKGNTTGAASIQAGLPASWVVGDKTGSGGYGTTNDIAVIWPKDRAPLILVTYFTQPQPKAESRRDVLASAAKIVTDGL
In short: (§1)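 Native untagged enzymes were expressed in E. coli BL21(DE3) and purified by cation exchange and gel filtration. Compound series (100–0.005 μM in PBS pH 7.0, before addition of an equal enzyme volume) were preincubated with enzyme 10 min at 37°C. Nitrocefin (100 μM final) hydrolysis was read kinetically at 486 nm for 10 min, and IC50 was taken as 50% reduction of initial rate versus no-inhibitor wells.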

[2] = test system: K. pneumoniae expressing the Class A ESBL CTX-M-15; assay: microbe, parasite or virus in culture; format: cell-based; conditions: in the presence of fixed 8 μg/mL Ceftazidime
Text: To determine the ability of test compounds to potentiate the inhibition of the growth of bacterial strains producing beta-lactamase enzymes, classic cell based screening assays were employed. Four bacteria strains producing beta-lactamase enzymes were used: K. pneumoniae expressing the Class A Extended Spectrum Beta-Lactamase (ESBL) CTX-M-15, E. coli expressing the Class A ESBL SHV-5, E. cloacae expressing the Class C P99+, and K. pneumoniae expressing the Class A carbapenemase KPC-2. In order to evaluate the ability of test compounds to inhibit beta-lactamase activity, Applicants used a modification of the broth microdilution assay. The assay was conducted in Cation Adjusted Mueller Hinton Broth (CAMHB, BD # 212322, BD Diagnostic Systems, Sparks, Md.). Bacteria strains were grown for 3-5 hours in CAMBH broth. All four strains were grown in presence of 50 μg/mL ampicillin to ensure resistance is maintained. In the meantime, test compounds were diluted in DMSO to a 0.1 mg/mL stock. The compounds were added to a microtiter plate and were diluted in 2-fold serial dilutions in CAMHB in a final concentration range of 8 μg/mL to 0.015 μg/ml. […] […] Each of these compound plates are made in quadruplicate, one for each bacteria strain. In addition to the titration of test compounds the MICs of a panel of cephalosporins is also tested to ensure the strains are behaving consistently from test to test. Once the test compound and cephalosporin are added the plates can be inoculated. Inocula are conducted according to CLSI broth microdilution method. After inoculation the plates are incubated for 16-20 hours at 37° C. then the Minimal Inhibitory Concentration (MIC) of the test compound is determined visually.

[3] = biological target: T2, Class C P99 AmpC (Enterobacter cloacae, UniProt P05364); format: biochemical; conditions: purified enzyme; nitrocefin 100 μM, PBS pH 7.0; read-out: P99 AmpC IC50 Range
T2 construct: made in house; host or cells: E. coli BL21(DE3)
T2 sequence (P05364 21-381): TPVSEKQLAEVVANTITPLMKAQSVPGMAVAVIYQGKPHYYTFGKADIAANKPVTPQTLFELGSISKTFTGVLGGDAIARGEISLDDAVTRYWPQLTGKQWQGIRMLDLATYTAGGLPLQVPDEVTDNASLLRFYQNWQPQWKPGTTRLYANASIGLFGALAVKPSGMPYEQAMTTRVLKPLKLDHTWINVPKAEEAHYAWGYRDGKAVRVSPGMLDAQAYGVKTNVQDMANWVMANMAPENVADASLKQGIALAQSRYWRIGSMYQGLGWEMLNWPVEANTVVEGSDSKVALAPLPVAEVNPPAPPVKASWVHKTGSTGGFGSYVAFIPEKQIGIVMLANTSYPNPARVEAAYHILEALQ
In short: as §1

[4] = test system: E. coli expressing the Class A ESBL SHV-5; assay: microbe, parasite or virus in culture; format: cell-based; conditions: in the presence of fixed 8 μg/mL Ceftazidime
Text: To determine the ability of test compounds to potentiate the inhibition of the growth of bacterial strains producing beta-lactamase enzymes, classic cell based screening assays were employed. Four bacteria strains producing beta-lactamase enzymes were used: K. pneumoniae expressing the Class A Extended Spectrum Beta-Lactamase (ESBL) CTX-M-15, E. coli expressing the Class A ESBL SHV-5, E. cloacae expressing the Class C P99+, and K. pneumoniae expressing the Class A carbapenemase KPC-2. In order to evaluate the ability of test compounds to inhibit beta-lactamase activity, Applicants used a modification of the broth microdilution assay. The assay was conducted in Cation Adjusted Mueller Hinton Broth (CAMHB, BD # 212322, BD Diagnostic Systems, Sparks, Md.). Bacteria strains were grown for 3-5 hours in CAMBH broth. All four strains were grown in presence of 50 μg/mL ampicillin to ensure resistance is maintained. In the meantime, test compounds were diluted in DMSO to a 0.1 mg/mL stock. The compounds were added to a microtiter plate and were diluted in 2-fold serial dilutions in CAMHB in a final concentration range of 8 μg/mL to 0.015 μg/ml. An overlay of CAMHB containing a cephalosporin was added to the compounds at a final static concentration of 8 μg/ml. […] Each of these compound plates are made in quadruplicate, one for each bacteria strain. In addition to the titration of test compounds the MICs of a panel of cephalosporins is also tested to ensure the strains are behaving consistently from test to test. Once the test compound and cephalosporin are added the plates can be inoculated. Inocula are conducted according to CLSI broth microdilution method. After inoculation the plates are incubated for 16-20 hours at 37° C. then the Minimal Inhibitory Concentration (MIC) of the test compound is determined visually.

[5] = test system: K. pneumoniae expressing the Class A carbapenemase KPC-2; assay: microbe, parasite or virus in culture; conditions: in the presence of fixed 8 μg/mL Ceftazidime
[6] = biological target: T3, Class A carbapenemase KPC-2 (Klebsiella pneumoniae, UniProt Q9F663); assay: β-lactamase enzyme inhibition (nitrocefin hydrolysis), KPC-2; format: biochemical; conditions: purified enzyme; nitrocefin 100 μM, PBS pH 7.0; read-out: KPC-2 IC50 Range
T3 construct: made in house; host or cells: E. coli BL21(DE3)
T3 sequence (Q9F663 25-293 limits assumed): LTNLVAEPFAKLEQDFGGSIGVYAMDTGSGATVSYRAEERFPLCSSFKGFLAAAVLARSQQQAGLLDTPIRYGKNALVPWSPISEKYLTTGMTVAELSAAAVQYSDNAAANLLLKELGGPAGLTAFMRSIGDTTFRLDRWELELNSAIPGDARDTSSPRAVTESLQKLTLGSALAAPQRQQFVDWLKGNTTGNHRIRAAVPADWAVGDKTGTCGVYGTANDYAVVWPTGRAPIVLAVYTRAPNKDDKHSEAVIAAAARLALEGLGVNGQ
In short: as §1

[7] = biological target: T4, Class A ESBL SHV-5 (Klebsiella pneumoniae, UniProt P0A3M1); format: biochemical, E. coli; conditions: nitrocefin 100 μM, PBS pH 7.0, read-out: SHV-5 IC50 Range
T4 construct: made in house; host or cells: E. coli BL21(DE3) for purified enzyme; E. coli cells containing SHV-5 for extracts
T4 sequence (P0A3M1 22-286): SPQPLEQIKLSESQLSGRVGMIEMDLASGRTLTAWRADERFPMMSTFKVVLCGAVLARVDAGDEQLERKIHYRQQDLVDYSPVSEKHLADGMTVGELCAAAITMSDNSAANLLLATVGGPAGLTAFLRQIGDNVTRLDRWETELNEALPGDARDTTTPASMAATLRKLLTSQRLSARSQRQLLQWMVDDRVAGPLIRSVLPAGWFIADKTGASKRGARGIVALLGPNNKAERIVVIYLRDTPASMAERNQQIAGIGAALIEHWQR

[8] = purified beta-lactamase enzyme (Examples 1 and 31-64)
[9] = cellular extracts of E. coli containing SHV-5 (Examples 2-30)

| SMILES | IC50 [1] [nM] | MIC of example compound, K. pneumoniae CTX-M-15 + 8 μg/mL CAZ [2] | IC50 [3] [nM] | MIC of example compound, E. coli SHV-5 + 8 μg/mL CAZ [4] | MIC of example compound, K. pneumoniae KPC-2 + 8 μg/mL CAZ [5] | IC50 [6] [nM] | IC50 [7, 8] [nM] | IC50 [7, 9] [nM] |
| --- | --- | --- | --- | --- | --- | --- | --- | --- |
| O=C(Cc1cccs1)N[C@@H](Cc1cccc(C(=O)O)c1O)B(O)O [Example 1, (1R)-1-(2-thiophene-2-yl-acetylamino)-2-(2-hydroxy-3-carboxyphenyl)ethyl-1-boronic acid] | < 10 | C (C represents an MIC of <1 μg/mL) | < 10 | C (C represents an MIC of <1 μg/mL) | C (C represents an MIC of <1 μg/mL) | < 10 | < 10 |  |
| O=C(O)COc1cccc(CC(=O)N[C@@H](Cc2cccc(C(=O)O)c2O)B(O)O)c1 [Example 7, (1R)-1-[3-(carboxymethoxy)-phenyl]acetylamino-(3-carboxy-2-hydroxy)benzyl-methylboronic acid] | < 10 | C (C represents an MIC of <1 μg/mL) | < 10 | C (C represents an MIC of <1 μg/mL) | C (C represents an MIC of <1 μg/mL) |  |  | < 10 |
| O=C(Cc1cc(Br)cs1)N[C@@H](Cc1cccc(C(=O)O)c1O)B(O)O [Example 9, (1R)-1-(2-(4-bromo-thiophen-2-nyl)acetylamino)-2-(2-hydroxy-3-carboxyphenyl)ethyl-1-boronic acid] | < 10 | C (C represents an MIC of <1 μg/mL) | < 10 | C (C represents an MIC of <1 μg/mL) | C (C represents an MIC of <1 μg/mL) | 10 to 100 |  | < 10 |
| O=C(CO)N[C@@H](Cc1cccc(C(=O)O)c1O)B(O)O [Example 19, (1R)-1-Hydroxyacetylamino-1-(3-carboxy-2-hydroxy)benzyl-methyl boronic acid] | 10 to 100 | C (C represents an MIC of <1 μg/mL) | 100 to 1000 | A (A represents an MIC >8 μg/mL) | C (C represents an MIC of <1 μg/mL) | 10 to 100 |  | 100 to 1000 |
| CCCCCC(=O)N[C@@H](Cc1cccc(C(=O)O)c1O)B(O)O [Example 21, (1R)-1-Hexanoylamino-(3-carboxy-2-hydroxy)benzyl-methylboronic acid] | < 10 | C (C represents an MIC of <1 μg/mL) | < 10 | C (C represents an MIC of <1 μg/mL) | C (C represents an MIC of <1 μg/mL) | < 10 |  | < 10 |
| COc1ccccc1C(=O)N[C@@H](Cc1cccc(C(=O)O)c1O)B(O)O [Example 34, (1R)-1-(2-methoxybenzoylamino)-2-(2-hydroxy-3-carboxyphenyl)ethyl-1-boronic acid] | < 10 |  | < 10 | A (A represents an MIC >8 μg/mL) | C (C represents an MIC of <1 μg/mL) | 10 to 100 | 100 to 1000 |  |
| Cn1nc(-c2ccccc2)cc1C(=O)N[C@@H](Cc1cccc(C(=O)O)c1O)B(O)O [Example 44, (1R)-1-(1-methyl-3-phenyl-1H-pyrazole-5-carbonyl-amino)-2-(2-hydroxy-3-carboxyphenyl)ethyl-1-boronic acid] | < 10 | A (A represents an MIC >8 μg/mL) | < 10 | A (A represents an MIC >8 μg/mL) |  | 10 to 100 | < 10 |  |
| Cc1nc(-c2cccc(C(=O)N[C@@H](Cc3cccc(C(=O)O)c3O)B(O)O)c2)no1 [Example 47, (1R)-1-[3-(5-methyl-[1,2,4]oxadiazol-3-yl)-benzoyl]-amino-1-(3-carboxy-2-hydroxy)benzyl-methylboronic acid] | < 10 | A (A represents an MIC >8 μg/mL) | < 10 | A (A represents an MIC >8 μg/mL) |  | < 10 | 10 to 100 |  |
| O=C(N[C@@H](Cc1cccc(C(=O)O)c1O)B(O)O)c1ccc(N2CCOCC2)nc1 [Example 48, (1R)-1-(6-morpholin-4-yl-pyridine-3-carbonyl)-amino-1-(3-carboxy-2-hydroxy)benzyl-methylboronic acid] | < 10 |  | 10 to 100 | A (A represents an MIC >8 μg/mL) | C (C represents an MIC of <1 μg/mL) | < 10 | 100 to 1000 |  |
| O=C(Cc1ccccn1)N[C@@H](Cc1cccc(C(=O)O)c1O)B(O)O.O=CO [Example 61, (1R)-1-(2-Pyridylacetylamino)-2-(2-hydroxy-3-carboxyphenyl)ethyl-1-boronic acid formate salt] | < 10 | C (C represents an MIC of <1 μg/mL) | < 10 |  | C (C represents an MIC of <1 μg/mL) | 10 to 100 | < 10 |  |
| CS(=O)(=O)c1ccc(CC(=O)N[C@@H](Cc2cccc(C(=O)O)c2O)B(O)O)cc1 [Example 62, (1R)-1-(2-(4-(methylsulfonyl)phenyl)-acetylamino)-2-(2-hydroxy-3-carboxyphenyl)ethyl-1-boronic acid] | < 10 | C (C represents an MIC of <1 μg/mL) | < 10 |  | C (C represents an MIC of <1 μg/mL) | < 10 | < 10 |  |
